The numbers were not newly measured in patent publication US20250114332A1 (LABORATORIOS SILANES S.A. DE C.V., priority 2023, published 2025), which cites them from elsewhere.

Where two headings read alike, the source gives them in different places.

The conditions of this data set: drug substance.

Take `CC(=O)Nc1ccc(O)cc1` [Acetaminophen, N-(4-hydroxyphenyl) acetamide]: the Biopharmaceutical classification result was “Group III (high solubility and low permeability)”. Also, the Biopharmaceutical classification result (listed as acetaminophen) was “group III”.

With `Cc1ccc(-c2cc(C(F)(F)F)nn2-c2ccc(S(N)(=O)=O)cc2)cc1` [Celecoxib], the Biopharmaceutical classification result is “Belongs to group II (high permeability and low”.
